Source: the NIST ThermoML archive (doi:10.1016/j.jct.2018.12.031)

Test: xn = mol fraction of the nth substance listed
Settings: 100 kPa, Liquid; for speed of sound: Frequency=3 MHz, Linear variable-path acoustic interferometer; for mass density: Pycnometric method

C=C(C)C(=O)OCC [ethyl 2-methylpropenoate] + N#Cc1ccccc1
Settings	mass density [kg/m3]	speed of sound [m/s]
293.15 K, x2 = 0	912.3	1196.8
293.15 K, x2 = 0.0711	918.32	1212.4
293.15 K, x2 = 0.1419	924.37	1228
293.15 K, x2 = 0.2152	930.7	1244.1
293.15 K, x2 = 0.2872	936.99	1259.8
293.15 K, x2 = 0.3568	943.14	1274.9
293.15 K, x2 = 0.4307	949.76	1290.9
293.15 K, x2 = 0.4991	955.96	1306
293.15 K, x2 = 0.5752	962.96	1323.3
293.15 K, x2 = 0.6431	969.29	1339.2
293.15 K, x2 = 0.7177	976.35	1357.7
293.15 K, x2 = 0.7773	982.06	1373
293.15 K, x2 = 0.8576	989.86	1394.7
293.15 K, x2 = 0.9289	996.89	1414.8
298.15 K, x2 = 0	907.18	1176.9
298.15 K, x2 = 0.0711	913.3	1193
298.15 K, x2 = 0.1419	919.45	1208.9
298.15 K, x2 = 0.2152	925.88	1225
298.15 K, x2 = 0.2872	932.27	1240.7
298.15 K, x2 = 0.3568	938.52	1255.7
298.15 K, x2 = 0.4307	945.23	1271.6
298.15 K, x2 = 0.4991	951.53	1286.8
298.15 K, x2 = 0.5752	958.64	1304.2
298.15 K, x2 = 0.6431	965.07	1320
298.15 K, x2 = 0.7177	972.24	1338.5
298.15 K, x2 = 0.7773	978.04	1354
298.15 K, x2 = 0.8576	985.97	1375.9
298.15 K, x2 = 0.9289	993.11	1396.3
303.15 K, x2 = 0	902.06	1157.6
303.15 K, x2 = 0.0711	908.28	1174.2
303.15 K, x2 = 0.1419	914.53	1190.4
303.15 K, x2 = 0.2152	921.06	1206.4
303.15 K, x2 = 0.2872	927.55	1222.1
303.15 K, x2 = 0.3568	933.89	1237.4
303.15 K, x2 = 0.4307	940.7	1253.4
303.15 K, x2 = 0.4991	947.1	1268.4
303.15 K, x2 = 0.5752	954.32	1285.8
303.15 K, x2 = 0.6431	960.85	1301.7
303.15 K, x2 = 0.7177	968.13	1320.4
303.15 K, x2 = 0.7773	974.02	1336
303.15 K, x2 = 0.8576	982.07	1358.2
303.15 K, x2 = 0.9289	989.33	1379.1
308.15 K, x2 = 0	896.94	1139.4
308.15 K, x2 = 0.0711	903.26	1156.4
308.15 K, x2 = 0.1419	909.61	1172.7
308.15 K, x2 = 0.2152	916.24	1188.9
308.15 K, x2 = 0.2872	922.82	1204.6
308.15 K, x2 = 0.3568	929.26	1219.8
308.15 K, x2 = 0.4307	936.17	1236
308.15 K, x2 = 0.4991	942.67	1251.3
308.15 K, x2 = 0.5752	949.99	1268.7
308.15 K, x2 = 0.6431	956.62	1284.7
308.15 K, x2 = 0.7177	964.02	1303.5
308.15 K, x2 = 0.7773	970	1319.3
308.15 K, x2 = 0.8576	978.17	1341.8
308.15 K, x2 = 0.9289	985.54	1362.6
313.15 K, x2 = 0	891.83	1121.5
313.15 K, x2 = 0.0711	898.24	1138.9
313.15 K, x2 = 0.1419	904.68	1155.3
313.15 K, x2 = 0.2152	911.41	1171.7
313.15 K, x2 = 0.2872	918.09	1187.4
313.15 K, x2 = 0.3568	924.62	1202.7
313.15 K, x2 = 0.4307	931.64	1218.9
313.15 K, x2 = 0.4991	938.23	1234.1
313.15 K, x2 = 0.5752	945.66	1251.8
313.15 K, x2 = 0.6431	952.39	1268.2
313.15 K, x2 = 0.7177	959.9	1287.3
313.15 K, x2 = 0.7773	965.97	1303.5
313.15 K, x2 = 0.8576	974.27	1326.1
313.15 K, x2 = 0.9289	981.75	1347.2
318.15 K, x2 = 0	886.71	1104.6
318.15 K, x2 = 0.0711	893.22	1122.5
318.15 K, x2 = 0.1419	899.75	1139.1
318.15 K, x2 = 0.2152	906.58	1155.6
318.15 K, x2 = 0.2872	913.35	1171.4
318.15 K, x2 = 0.3568	919.98	1186.5
318.15 K, x2 = 0.4307	927.11	1202.7
318.15 K, x2 = 0.4991	933.79	1217.9
318.15 K, x2 = 0.5752	941.33	1235.6
318.15 K, x2 = 0.6431	948.16	1252.3
318.15 K, x2 = 0.7177	955.78	1271.8
318.15 K, x2 = 0.7773	961.94	1288.2
318.15 K, x2 = 0.8576	970.37	1311.3
318.15 K, x2 = 0.9289	977.96	1332.3

N#Cc1ccccc1 [benzonitrile] + C=C(C)C(=O)OC
Settings	mass density [kg/m3]	speed of sound [m/s]
293.15 K, x1 = 0.0652	948.11	1220.4
293.15 K, x1 = 0.1303	952.71	1239.9
293.15 K, x1 = 0.1922	956.98	1258.1
293.15 K, x1 = 0.271	962.27	1279.6
293.15 K, x1 = 0.3371	966.59	1296.9
293.15 K, x1 = 0.4174	971.69	1316.8
293.15 K, x1 = 0.4872	976	1333.2
293.15 K, x1 = 0.5689	980.9	1351.4
293.15 K, x1 = 0.6398	985.02	1366.6
293.15 K, x1 = 0.7089	988.92	1381.1
293.15 K, x1 = 0.7767	992.63	1394.4
293.15 K, x1 = 0.8571	996.88	1410
293.15 K, x1 = 0.9252	1000.34	1422.4
293.15 K, x1 = 1	1003.99	1436.9
298.15 K, x1 = 0.0652	942.55	1203.9
298.15 K, x1 = 0.1303	947.32	1223.6
298.15 K, x1 = 0.1922	951.75	1241.7
298.15 K, x1 = 0.271	957.23	1263.3
298.15 K, x1 = 0.3371	961.71	1280.2
298.15 K, x1 = 0.4174	966.99	1299.9
298.15 K, x1 = 0.4872	971.45	1316.2
298.15 K, x1 = 0.5689	976.51	1334.3
298.15 K, x1 = 0.6398	980.77	1349.3
298.15 K, x1 = 0.7089	984.8	1363.6
298.15 K, x1 = 0.7767	988.63	1376.7
298.15 K, x1 = 0.8571	993.01	1392.3
298.15 K, x1 = 0.9252	996.57	1404.6
298.15 K, x1 = 1	1000.32	1418.2
303.15 K, x1 = 0.0652	936.99	1189.3
303.15 K, x1 = 0.1303	941.93	1209
303.15 K, x1 = 0.1922	946.52	1227
303.15 K, x1 = 0.271	952.19	1248.3
303.15 K, x1 = 0.3371	956.83	1265.4
303.15 K, x1 = 0.4174	962.29	1284.8
303.15 K, x1 = 0.4872	966.9	1300.8
303.15 K, x1 = 0.5689	972.12	1319
303.15 K, x1 = 0.6398	976.52	1333.8
303.15 K, x1 = 0.7089	980.68	1348
303.15 K, x1 = 0.7767	984.63	1360.9
303.15 K, x1 = 0.8571	989.14	1376
303.15 K, x1 = 0.9252	992.8	1388.2
303.15 K, x1 = 1	996.65	1400.7
308.15 K, x1 = 0.0652	931.43	1173.8
308.15 K, x1 = 0.1303	936.55	1193.9
308.15 K, x1 = 0.1922	941.29	1211.7
308.15 K, x1 = 0.271	947.15	1232.7
308.15 K, x1 = 0.3371	951.93	1249.6
308.15 K, x1 = 0.4174	957.57	1268.8
308.15 K, x1 = 0.4872	962.33	1284.7
308.15 K, x1 = 0.5689	967.73	1302.9
308.15 K, x1 = 0.6398	972.27	1317.9
308.15 K, x1 = 0.7089	976.56	1332
308.15 K, x1 = 0.7767	980.63	1345.5
308.15 K, x1 = 0.8571	985.27	1360.6
308.15 K, x1 = 0.9252	989.03	1372
308.15 K, x1 = 1	992.98	1384
313.15 K, x1 = 0.0652	925.87	1157
313.15 K, x1 = 0.1303	931.16	1177.3
313.15 K, x1 = 0.1922	936.06	1195.3
313.15 K, x1 = 0.271	942.12	1216.5
313.15 K, x1 = 0.3371	947.05	1233.2
313.15 K, x1 = 0.4174	952.87	1252.4
313.15 K, x1 = 0.4872	957.78	1268.5
313.15 K, x1 = 0.5689	963.35	1286.5
313.15 K, x1 = 0.6398	968.02	1302.2
313.15 K, x1 = 0.7089	972.44	1316.5
313.15 K, x1 = 0.7767	976.63	1330.5
313.15 K, x1 = 0.8571	981.4	1345.5
313.15 K, x1 = 0.9252	985.26	1357.2
313.15 K, x1 = 1	989.31	1368.2
318.15 K, x1 = 0.0652	920.31	1140.3
318.15 K, x1 = 0.1303	925.77	1160.8
318.15 K, x1 = 0.1922	930.83	1179
318.15 K, x1 = 0.271	937.08	1200
318.15 K, x1 = 0.3371	942.18	1216.8
318.15 K, x1 = 0.4174	948.18	1236
318.15 K, x1 = 0.4872	953.23	1251.9
318.15 K, x1 = 0.5689	958.96	1270.3
318.15 K, x1 = 0.6398	963.77	1286
318.15 K, x1 = 0.7089	968.31	1300.9
318.15 K, x1 = 0.7767	972.61	1315
318.15 K, x1 = 0.8571	977.51	1330.8
318.15 K, x1 = 0.9252	981.48	1342.4
318.15 K, x1 = 1	985.64	1352.9
